Laboratory results as given in patent publication EP4656640A1, “IRAK4 DEGRADER AND USE THEREOF” (Shanghai Qilu Pharmaceutical Research and Development …, priority 2023, dated 2024).
Read-outs that look alike come from different tables or passages of the source.

Tests used:
IL-6 secretion = assay: Inhibition of induced IL-6 secretion in human PBMCs (CBA); assay type: cell-based; settings: PBMC
Procedure: The effect of PROTAC small molecules on inflammatory factors in PBMCs downstream of IRAK4 induced by TLR and IL-1 was detected based on the CBA (cytometric bead array) method.
Step 2: The density of PBMCs was adjusted to 1 E6/mL, and 150 µL of PBMCs in 1640 complete medium were seeded into a 96-well plate, followed by incubation at 37°C for 1 hour.
Step 3: 50 µL of serially diluted small molecule (working concentration: 10000 nM, 1:3 dilution) drugs were inoculated into the plate in a 37°C incubator for 8 hours.
Step 4: 10 µL of stimulants were added respectively, with final concentrations of 100 ng/mL for LPS, 1 µg/mL for R848, and 100 ng/mL for IL-1β.
Step 5: CBA assay. The concentrations of IL-6 and TNF-α in the cell culture supernatant were determined using Hu IL-6 CBA Flex Set A7 and Hu TNF- CBA Flex Set D9.
Step 6: Standard samples were prepared: 2500 pg/mL, 1250 pg/mL,...0. A 1:2 serial dilution was performed to obtain 10 concentrations.
Step 7: The mixed capture beads were resuspended in capture bead diluent (1:50), and cell culture supernatant (50 µL) was added, followed by incubation at room temperature for 10 minutes.
Step 8: The detection reagent prepared with detection diluent was added, and the mixture was incubated in the dark at room temperature for 3 hours. At the end of incubation, the samples were washed once with wash buffer and resuspended for detection.
The concentrations of IL-6 and TNFα were calculated using the standard curve method. Data presentation and IC50 calculation were performed using Prism 8.0.2.

IRAK4 [1] = biological target: T1, IRAK4 (Homo sapiens, UniProt Q9NWZ3); assay: Degradation of IRAK4 in monocytes of human PBMCs (flow cytometry); assay type: cell-based; parameters: endogenous in cells; settings: human PBMC monocytes, 24 hours incubation
T1 sequence (Q9NWZ3 1-460): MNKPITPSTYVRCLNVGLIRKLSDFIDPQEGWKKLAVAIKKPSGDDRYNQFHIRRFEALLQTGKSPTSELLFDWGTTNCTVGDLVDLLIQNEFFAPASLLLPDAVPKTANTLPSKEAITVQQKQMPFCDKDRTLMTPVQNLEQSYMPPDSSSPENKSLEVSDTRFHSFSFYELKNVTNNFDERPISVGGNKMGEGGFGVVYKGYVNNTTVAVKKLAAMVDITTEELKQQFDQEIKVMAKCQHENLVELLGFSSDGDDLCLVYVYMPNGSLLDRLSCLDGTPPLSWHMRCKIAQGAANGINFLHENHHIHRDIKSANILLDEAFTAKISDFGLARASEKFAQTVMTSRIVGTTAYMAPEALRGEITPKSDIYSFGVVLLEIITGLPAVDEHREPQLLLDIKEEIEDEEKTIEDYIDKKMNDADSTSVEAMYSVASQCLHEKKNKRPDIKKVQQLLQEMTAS
Procedure: The degradation level of IRAK4 in monocytes of human peripheral blood mononuclear cells (hPBMCs) was detected by flow cytometry.
On day 1, the cells were seeded at a density of 2 × 10^5 cells per well in 100 µL in a 96-well plate.
The compounds were dissolved in DMSO to a final concentration of 10 mM, and then diluted with culture medium at a 1:5 concentration gradient to prepare 10 concentrations. The diluted solutions were added to the cells to obtain a maximum final concentration of 2 µM. Wells containing cells treated with 0.1% DMSO served as the positive control
The cells were incubated at 37°C in a 5% CO2 incubator for 24 hours.
The cells were stained for viability discrimination using the LIVE/DEAD™ Fixable Blue Dead Cell Stain Kit, and surface staining of monocytes was performed with PE Mouse Anti-Human CD14, followed by incubation at 4°C for 30 minutes.
Fix buffer I, equal in volume to the cultured cells, was added, and the cells were fixed at 37°C for 10 minutes.
150 µL of Perm III reagent was added, and the cells were incubated at 4°C for 30 minutes to permeabilize the membranes.
Flow cytometry analysis was performed using a flow cytometer.
The flow cytometry data were analyzed using Flowjo software. Data presentation and DC50 calculation were performed using Prism 8.0.2 (GraphPad).

hERG potassium channel = hERG potassium channel (Homo sapiens, UniProt Q12809); assay: Inhibition of hERG potassium channel, whole-cell manual patch clamp in CHO-hERG cells; settings: @ 1 µM test compound
Procedure: The effects of compounds on hERG potassium channel (human Ether-a-go-go Related Gene potassium channel) currents were tested using the whole-cell manual voltage-clamp electrophysiological method.
CHO cells stably expressing hERG were cultured in cell culture dishes with a diameter of 35 mm and incubated at 37°C in a 5% CO2 incubator. The cells were passaged at a ratio of 1:5 every 48 hours. The culture medium was formulated as follows: 90% F12 (Invitrogen), 10% fetal bovine serum (Gibco), 100 g/mL G418 (Invitrogen), and 100 g/mL Hygromycin B (Invitrogen). On the day of the experiment, the cell culture medium was aspirated, and the cells were rinsed once with extracellular solution. […] The digestion solution was aspirated, and the cells were resuspended in extracellular solution and then transferred to experimental dishes for electrophysiological recording for later use.
On the day of testing, the compounds were prepared as 10 mM stock solutions in DMSO, then diluted to 1 mM with DMSO, and further diluted 1000-fold with extracellular solution to obtain the desired final test concentration.
hERG potassium channel currents were recorded at room temperature using the whole-cell patch-clamp technique in CHO cells stably expressing the hERG channel. The glass microelectrode was prepared by pulling the glass electrode blank (BF150-86-10, Sutter) with a puller, and the tip resistance after filling with the internal electrode solution was about 2-5 MΩ. The glass microelectrode was inserted into the amplifier probe and then connected to the patch-clamp amplifier. The clamping voltage and data recording were controlled and recorded by pClamp software via a computer, with a sampling frequency of 10 kHz and a filtering frequency of 2 kHz. After obtaining the whole-cell recording, cells were clamped at -100 mV. The hERG potassium current (IhERG) was evoked by applying a 2 s depolarizing voltage step from -100 mV to +20 mV, followed by repolarization to -50 mV for 1 s before returning to -100 mV. […]
Data were analyzed and processed using pClamp, GraphPad Prism 8 and Excel software. […]

IRAK4 [2] = biological target: T1, IRAK4; assay: Degradation of IRAK4 in SU-DHL-2 cells (flow cytometry); assay type: cell-based; parameters: The degradation level of IRAK4 protein in SU-DHL-2 cell line by the compounds was detected by flow cytometry; endogenous in cells; host or cells: SU-DHL-2; OCI-LY3; settings: SU-DHL-2 cells, 24 hours incubation; read-out: SU-DHL-2 DC50
[3] = IL-1β 100 ng/mL, read-out: IC50 of compounds against induced secretion, IL-6, IL-1β
[4] = LPS 100 ng/mL, read-out: IC50 of compounds against induced secretion, IL-6, LPS
[5] = R848 1 µg/mL, read-out: IC50 of compounds against induced secretion, IL-6, R848

Chain of hERG potassium channel (Q12809 whole entry): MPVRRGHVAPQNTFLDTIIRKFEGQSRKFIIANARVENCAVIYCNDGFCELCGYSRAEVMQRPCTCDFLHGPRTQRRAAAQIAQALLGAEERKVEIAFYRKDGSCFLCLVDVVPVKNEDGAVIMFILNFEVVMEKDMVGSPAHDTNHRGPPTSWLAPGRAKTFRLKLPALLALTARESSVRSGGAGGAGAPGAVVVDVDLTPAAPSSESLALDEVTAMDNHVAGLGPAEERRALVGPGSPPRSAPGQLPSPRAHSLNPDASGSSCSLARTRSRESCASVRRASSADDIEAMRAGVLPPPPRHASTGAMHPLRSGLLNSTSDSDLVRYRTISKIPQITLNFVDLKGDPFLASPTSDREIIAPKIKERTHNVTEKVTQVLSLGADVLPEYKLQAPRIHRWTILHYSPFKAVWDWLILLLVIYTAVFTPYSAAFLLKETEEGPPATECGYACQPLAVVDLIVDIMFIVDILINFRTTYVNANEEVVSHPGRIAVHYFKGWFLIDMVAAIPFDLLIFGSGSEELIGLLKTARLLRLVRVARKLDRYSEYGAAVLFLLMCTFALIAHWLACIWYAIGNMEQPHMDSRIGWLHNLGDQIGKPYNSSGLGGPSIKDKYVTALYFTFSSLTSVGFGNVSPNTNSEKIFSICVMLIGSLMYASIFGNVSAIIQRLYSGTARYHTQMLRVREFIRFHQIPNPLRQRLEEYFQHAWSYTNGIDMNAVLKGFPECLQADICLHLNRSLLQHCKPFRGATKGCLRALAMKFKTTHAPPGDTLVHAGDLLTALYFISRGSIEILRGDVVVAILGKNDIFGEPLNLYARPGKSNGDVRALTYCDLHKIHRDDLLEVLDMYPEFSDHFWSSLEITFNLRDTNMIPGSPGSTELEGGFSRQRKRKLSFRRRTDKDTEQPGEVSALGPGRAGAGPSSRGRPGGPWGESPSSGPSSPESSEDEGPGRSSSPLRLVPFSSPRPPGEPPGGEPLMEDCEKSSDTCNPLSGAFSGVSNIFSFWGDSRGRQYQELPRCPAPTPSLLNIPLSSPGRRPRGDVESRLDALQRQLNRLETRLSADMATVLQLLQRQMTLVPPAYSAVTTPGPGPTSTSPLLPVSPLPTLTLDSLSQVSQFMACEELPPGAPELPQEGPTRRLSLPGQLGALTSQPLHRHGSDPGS

SMILES | IC50 (IL-6 secretion; [3]) [nM] | IC50 (IL-6 secretion; [4]) [nM] | IC50 (IL-6 secretion; [5]) [nM] | DC50 (IRAK4 [1]) [nM] | hERG (inhibition%) (hERG potassium channel) [% @ 1 µM] | DC50 (IRAK4 [2]) [nM]
Cn1c(=O)n(C2CCC(=O)NC2=O)c2cccc(C#CCOC34CCC(CN5CCC6(CC5)CC(n5cc(NC(=O)c7cnn8ccc(N9C[C@H]%10C[C@@H]9CO%10)nc78)c(C(F)F)n5)C6)(CC3)CC4)c21 (stereo partly drawn) [Example 52] | 8.9 | 8.4 | 20.3 | 0.65 | 16 | 3
Cn1c(=O)n(C2CCC(=O)NC2=O)c2cccc(C#CCCN3CCC4(CC3)CC(n3cc(NC(=O)c5cnn6ccc(N7C[C@H]8C[C@@H]7CO8)nc56)c(C(F)F)n3)C4)c21 (stereo partly drawn) [Example 22] | 1 | 0.5 | 0.16 | 0.13 | 36 | 1.4
